Laboratory results: publication PMC10223470 (Molecules, 2023)

Target: T1, human D2S receptor (Homo sapiens, UniProt P14416)
T1 construct: expressed in transfected cells; host or cells: CHO-K1
Assay: Functional assays of cAMP signalling at D2 receptors (CHO-K1 cells, HTRF)
Format: cell-based
Description: The assessment of the activity of selected compounds at the D2 receptor was performed in cell-based functional assays of cAMP signaling, in the CHO-K1 cell line with stable expression of the cloned human D2S receptor, which was also employed for the radioligand binding assays. For D2 receptor antagonism, test compounds were dispensed into an empty 96-well plate (Isoplate-96 Black Frame White Well, PerkinElmer España SL, Madrid, Spain) with the use of the dispensing noncontact Echo 550 acoustic liquid handler (LABCYTE Inc., San Jose, CA, USA). Compounds were handled from frozen 10^−2 M stock solutions in 100% DMSO, from which serial 1000× solutions were prepared in 100% DMSO at the time of the assay, keeping vehicle concentration (0.1% DMSO) constant in the assay. Vials containing viable frozen cells were quickly thawed in a 37 °C water bath and cells were seeded into the assay plate in assay buffer (kit stimulation buffer containing 500 µM 3-isobutyl-1-methylxanthine (IBMX), which was directly added to the buffer as powder). […] After 10 min incubation at 37 °C, 10 µM forskolin was added to the corresponding wells, and incubation was continued for 5 min. After this time, cellular cAMP levels were quantified using the homogeneous time-resolved fluorescence (HTRF)-based cAMP Gs dynamic kit (Cisbio, Bioassays, Codolet, France) according to the manufacturer’s protocol. […] Basal cAMP levels were determined in control wells in the absence of compound, agonist, and forskolin.

T1 sequence (P14416 1-414 isoform P14416-2): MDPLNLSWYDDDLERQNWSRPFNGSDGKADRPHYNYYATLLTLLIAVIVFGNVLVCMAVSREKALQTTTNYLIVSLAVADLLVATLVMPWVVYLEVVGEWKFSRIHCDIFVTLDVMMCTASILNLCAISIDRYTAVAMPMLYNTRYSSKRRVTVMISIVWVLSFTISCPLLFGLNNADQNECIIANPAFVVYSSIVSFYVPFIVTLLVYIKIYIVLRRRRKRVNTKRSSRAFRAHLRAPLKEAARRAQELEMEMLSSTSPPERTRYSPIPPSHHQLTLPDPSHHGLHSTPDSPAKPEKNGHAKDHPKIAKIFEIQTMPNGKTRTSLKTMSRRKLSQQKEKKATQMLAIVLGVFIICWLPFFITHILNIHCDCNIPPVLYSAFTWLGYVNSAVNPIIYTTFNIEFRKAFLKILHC

Question: O=C(CCN1C(=O)CSc2ccccc21)Nc1ccc(Cl)cc1 [Compound 17, N-(4-Chlorophenyl)-3-(3-oxo-2,3-dihydro-4H-benzo[b][1,4]thiazin-4-yl)propanamide] was tested. Which Kb (antagonism of 1 µM dopamine response, forskolin-stimulated cAMP, three independent experiments, read-out: D2 Signalling (cAMP) pKb (Mean ± SEM) (converted)) did it give?
Answer: 26.9 nM

Question: What about the “efficacy at D2 receptor (mode of action)” value (cAMP signaling, CHO-K1 cells) of the same compound?
Answer: antagonism
